Results: patent publication US6737383B1, “Herbicidal oxadiazolidines” (priority 1999, dated 2004)

Key:
velvetleaf [1] = assay: Test A velvetleaf; assay type: in vivo, Abutilon theophrasti; conditions: 0 to 10 scale where 0 is no effect and 10 is complete control
In short: (§1)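 Ratings came from visual comparison with untreated plants about eleven days after treatment, scored 0 for no effect through 10 for complete control. Both soil-drench preemergence and runoff-spray postemergence applications were made at the same time.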

crabgrass = assay: Test A crabgrass; assay type: in vivo, Digitaria spp.; conditions: 0 to 10 scale where 0 is no effect and 10 is complete control
In short: as §1

morningglory = assay: Test A morningglory; assay type: in vivo, Ipomoea spp.; conditions: 0 to 10 scale where 0 is no effect and 10 is complete control
In short: as §1

barnyardgrass [2] = assay: Test A barnyardgrass; assay type: in vivo, Echinochloa crus-galli; conditions: 0 to 10 scale where 0 is no effect and 10 is complete control
In short: as §1

redroot pigweed = assay: Test C postemergence redroot pigweed; assay type: in vivo, Amaranthus retroflexus; conditions: 0 to 100 scale, 0 no effect, 100 complete control
Experimental: (§2) Compounds evaluated in this test were formulated in a non-phytotoxic solvent mixture which included a surfactant and applied to plants that were grown for various periods of time before treatment (postemergence application). A mixture of sandy loam soil and greenhouse potting mix in a 60:40 ratio was used for the postemergence test.
(§3) Plantings of these crops and weed species were adjusted to produce plants of appropriate size for the postemergence test. All plant species were grown using normal greenhouse practices. Crop and weed species include arrowleaf sida (Sida rhombifolia), barnyardgrass (Echinochloa crus-galli), cocklebur (Xanthium strumarium), common ragweed (Ambrosia elatior), corn (Zea mays), cotton (Gossypium hirsutum), eastern black nightshade (Solanum ptycanthum), fall panicum (Panicum dichotomiflorum), field bindweed (Convolvulus arvensis), giant foxtail (Setaria faberii), hairy beggarticks (Bidens pilosa), ivyleaf morningglory (Ipomoea hederacea), johnsongrass (Sorghum halepense), ladysthumb smartweed (Polygonum persicaria), lambsquarters (Chenopodium album), large crabgrass (Digitaria sanguinalis), purple nutsedge (Cyperus rotundus), redroot pigweed (Amaranthus retroflexus), soybean (Glycine max), surinam grass (Brachiaria decumbens), velvetleaf (Abutilon theophrasti) and wild poinsettia (Euphorbia heterophylla).
(§4) Treated plants and untreated controls were maintained in a greenhouse for approximately 14, to 21 days, after which all treated plants were compared to untreated controls and visually evaluated. Plant response ratings, summarized in Table C, were based upon a 0 to 100 scale where 0 was no effect and 100 was complete control. A dash response (−) means no test result.

hairy beggarticks = assay: Test C postemergence hairy beggarticks; assay type: in vivo, Bidens pilosa; conditions: 0 to 100 scale, 0 no effect, 100 complete control
In short: (§5)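 Postemergence spray; formulation = non-phytotoxic solvent + surfactant; soil 60:40 sandy loam:greenhouse potting mix; greenhouse, ~14–21 d; visual rating vs untreated, 0–100 (100 = complete control).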

lambsquarters = assay: Test C postemergence lambsquarters; assay type: in vivo, Chenopodium album; conditions: 0 to 100 scale, 0 no effect, 100 complete control
Experimental: as §2, §3, §4

cocklebur = assay: Test C postemergence cocklebur; assay type: in vivo, Xanthium strumarium; conditions: 0 to 100 scale, 0 no effect, 100 complete control
Experimental: as §2, §3, §4

common ragweed = assay: Test C postemergence common ragweed; assay type: in vivo, Ambrosia elatior; conditions: 0 to 100 scale, 0 no effect, 100 complete control
In short: as §5

barnyardgrass [3] = assay: Test C postemergence barnyardgrass; assay type: in vivo, Echinochloa crus-galli; conditions: 0 to 100 scale, 0 no effect, 100 complete control
In short: as §5

johnsongrass = assay: Test C postemergence johnsongrass; assay type: in vivo, Sorghum halepense; conditions: 0 to 100 scale, 0 no effect, 100 complete control
In short: as §5

fall panicum = assay: Test C postemergence fall panicum; assay type: in vivo, Panicum dichotomiflorum; conditions: 0 to 100 scale, 0 no effect, 100 complete control
Experimental: as §2, §3, §4

surinam grass = assay: Test C postemergence surinam grass; assay type: in vivo, Brachiaria decumbens; conditions: 0 to 100 scale, 0 no effect, 100 complete control
In short: as §5

giant foxtail = assay: Test C postemergence giant foxtail; assay type: in vivo, Setaria faberii; conditions: 0 to 100 scale, 0 no effect, 100 complete control
Experimental: as §2, §3, §4

eastern black nightshade = assay: Test C postemergence eastern black nightshade; assay type: in vivo, Solanum ptycanthum; conditions: 0 to 100 scale, 0 no effect, 100 complete control
Experimental: as §2, §3, §4

velvetleaf [4] = assay: Test C postemergence velvetleaf; assay type: in vivo, Abutilon theophrasti; conditions: 0 to 100 scale, 0 no effect, 100 complete control
Experimental: as §2, §3, §4

field bindweed = assay: Test C postemergence field bindweed; assay type: in vivo, Convolvulus arvensis; conditions: 0 to 100 scale, 0 no effect, 100 complete control
Experimental: as §2, §3, §4

wild poinsettia = assay: Test C postemergence wild poinsettia; assay type: in vivo, Euphorbia heterophylla; conditions: 0 to 100 scale, 0 no effect, 100 complete control
Experimental: as §2, §3, §4

CCN(C(=O)n1oc(=O)n(N(C)c2ccccc2)c1=O)C1CCCCC1 [Compound 183]
1: Plant response rating, Crabgrass (crabgrass; Postemergence, Rate 1000 g/ha)
9: Plant response rating, Barnyardgrass (barnyardgrass [2]; Pre-emergence, Rate 2000 g/ha)
5: Plant response rating, Crabgrass (crabgrass; Pre-emergence, Rate 2000 g/ha)
0: Plant response rating, Velvetleaf (velvetleaf [1]; Postemergence, Rate 1000 g/ha) | Plant response rating, Velvetleaf (velvetleaf [1]; Pre-emergence, Rate 2000 g/ha) | Plant response rating, Morningglory (morningglory; Postemergence, Rate 1000 g/ha) | Plant response rating, Morningglory (morningglory; Pre-emergence, Rate 2000 g/ha) | Plant response rating, Barnyardgrass (barnyardgrass [2]; Postemergence, Rate 1000 g/ha)

Cc1ccc(N(C(=O)n2oc(=O)n(C(C)C)c2=O)C(C)C)cc1 [Compound 132]
30: Plant response rating, Redroot pigweed (redroot pigweed; Rate 1120 g/ha) | Plant response rating Fall panicum (fall panicum; Rate 280 g/ha) | Plant response rating Surinam grass (surinam grass; Rate 1120 g/ha)
40: Plant response rating Field bindweed (field bindweed; Rate 560 g/ha)
50: Plant response rating, Barnyardgrass (barnyardgrass [3]; Rate 140 g/ha) | Plant response rating, Barnyardgrass (barnyardgrass [3]; Rate 280 g/ha) | Plant response rating Fall panicum (fall panicum; Rate 560 g/ha) | Plant response rating Fall panicum (fall panicum; Rate 1120 g/ha)
0: Plant response rating, Redroot pigweed (redroot pigweed; Rate 140 g/ha) | Plant response rating H. beggarticks (hairy beggarticks; Rate 140 g/ha) | Plant response rating H. beggarticks (hairy beggarticks; Rate 280 g/ha) | Plant response rating Lambsquarters (lambsquarters; Rate 140 g/ha) | Plant response rating Lambsquarters (lambsquarters; Rate 280 g/ha) | Plant response rating Lambsquarters (lambsquarters; Rate 560 g/ha) | Plant response rating Lambsquarters (lambsquarters; Rate 1120 g/ha) | Plant response rating, Cocklebur (cocklebur; Rate 140 g/ha) | Plant response rating, Cocklebur (cocklebur; Rate 280 g/ha) | Plant response rating, Cocklebur (cocklebur; Rate 560 g/ha) | Plant response rating, Cocklebur (cocklebur; Rate 1120 g/ha) | Plant response rating Common ragweed (common ragweed; Rate 140 g/ha) | Plant response rating Common ragweed (common ragweed; Rate 280 g/ha) | Plant response rating Common ragweed (common ragweed; Rate 560 g/ha) | Plant response rating Common ragweed (common ragweed; Rate 1120 g/ha) | Plant response rating Johnsongrass (johnsongrass; Rate 140 g/ha) | Plant response rating Johnsongrass (johnsongrass; Rate 280 g/ha) | Plant response rating Johnsongrass (johnsongrass; Rate 560 g/ha) | Plant response rating Fall panicum (fall panicum; Rate 140 g/ha) | Plant response rating Surinam grass (surinam grass; Rate 140 g/ha) | Plant response rating Surinam grass (surinam grass; Rate 280 g/ha) | Plant response rating Surinam grass (surinam grass; Rate 560 g/ha) | Plant response rating, Giant foxtail (giant foxtail; Rate 140 g/ha) | Plant response rating, Giant foxtail (giant foxtail; Rate 280 g/ha) | Plant response rating, Giant foxtail (giant foxtail; Rate 560 g/ha) | Plant response rating, Giant foxtail (giant foxtail; Rate 1120 g/ha) | Plant response rating E. blacknightsh (eastern black nightshade; Rate 140 g/ha) | Plant response rating E. blacknightsh (eastern black nightshade; Rate 280 g/ha) | Plant response rating E. blacknightsh (eastern black nightshade; Rate 560 g/ha) | Plant response rating E. blacknightsh (eastern black nightshade; Rate 1120 g/ha) | Plant response rating, Velvetleaf (velvetleaf [4]; Rate 140 g/ha) | Plant response rating, Velvetleaf (velvetleaf [4]; Rate 280 g/ha) | Plant response rating, Velvetleaf (velvetleaf [4]; Rate 560 g/ha) | Plant response rating, Velvetleaf (velvetleaf [4]; Rate 1120 g/ha) | Plant response rating Field bindweed (field bindweed; Rate 140 g/ha) | Plant response rating Field bindweed (field bindweed; Rate 280 g/ha) | Plant response rating Wild poinsettia (wild poinsettia; Rate 140 g/ha) | Plant response rating Wild poinsettia (wild poinsettia; Rate 280 g/ha) | Plant response rating Wild poinsettia (wild poinsettia; Rate 560 g/ha) | Plant response rating Wild poinsettia (wild poinsettia; Rate 1120 g/ha)
60: Plant response rating Johnsongrass (johnsongrass; Rate 1120 g/ha)
80: Plant response rating, Barnyardgrass (barnyardgrass [3]; Rate 560 g/ha)
95: Plant response rating, Barnyardgrass (barnyardgrass [3]; Rate 1120 g/ha)
10: Plant response rating, Redroot pigweed (redroot pigweed; Rate 280 g/ha)
70: Plant response rating Field bindweed (field bindweed; Rate 1120 g/ha)

CC(C)N(C(=O)n1oc(=O)n(N(C)c2ccccc2)c1=O)c1ccc(F)cc1 [Compound 177]
1: Plant response rating, Velvetleaf (velvetleaf [1]; Pre-emergence, Rate 2000 g/ha)
3: Plant response rating, Crabgrass (crabgrass; Postemergence, Rate 1000 g/ha)
2: Plant response rating, Velvetleaf (velvetleaf [1]; Postemergence, Rate 1000 g/ha)
0: Plant response rating, Morningglory (morningglory; Postemergence, Rate 1000 g/ha) | Plant response rating, Morningglory (morningglory; Pre-emergence, Rate 2000 g/ha) | Plant response rating, Barnyardgrass (barnyardgrass [2]; Postemergence, Rate 1000 g/ha)
9: Plant response rating, Crabgrass (crabgrass; Pre-emergence, Rate 2000 g/ha) | Plant response rating, Barnyardgrass (barnyardgrass [2]; Pre-emergence, Rate 2000 g/ha)

CC(C)N(C(=O)n1oc(=O)n(C2CCCC(C(F)(F)F)C2)c1=O)c1ccc(F)cc1 (centres unmarked) [Compound 184]
0: Plant response rating, Velvetleaf (velvetleaf [1]; Pre-emergence, Rate 2000 g/ha) | Plant response rating, Morningglory (morningglory; Pre-emergence, Rate 2000 g/ha)
1: Plant response rating, Crabgrass (crabgrass; Postemergence, Rate 1000 g/ha)
10: Plant response rating, Morningglory (morningglory; Postemergence, Rate 1000 g/ha)
9: Plant response rating, Crabgrass (crabgrass; Pre-emergence, Rate 2000 g/ha) | Plant response rating, Barnyardgrass (barnyardgrass [2]; Pre-emergence, Rate 2000 g/ha)
2: Plant response rating, Velvetleaf (velvetleaf [1]; Postemergence, Rate 1000 g/ha) | Plant response rating, Barnyardgrass (barnyardgrass [2]; Postemergence, Rate 1000 g/ha)
